Data taken from paper PMC4939156, “Study of a mechanism responsible for potential antidepressant activity of EMD 386088, a 5-HT6 partial agonist in rats” (Naunyn-Schmiedeberg's Archives of Pharmacology, 2016).
Counter-ions that a name gives are not always drawn.

Target: T1, dopamine transporter (DAT) (Homo sapiens, UniProt Q01959)
T1 construct: gene SLC6A3; human recombinant, CHO cells
Assay: Cerep DAT affinity assay, human recombinant CHO cells (called radioligand in the Discussion, functional in Methods)
Assay type: binding

T1 sequence (Q01959 whole entry): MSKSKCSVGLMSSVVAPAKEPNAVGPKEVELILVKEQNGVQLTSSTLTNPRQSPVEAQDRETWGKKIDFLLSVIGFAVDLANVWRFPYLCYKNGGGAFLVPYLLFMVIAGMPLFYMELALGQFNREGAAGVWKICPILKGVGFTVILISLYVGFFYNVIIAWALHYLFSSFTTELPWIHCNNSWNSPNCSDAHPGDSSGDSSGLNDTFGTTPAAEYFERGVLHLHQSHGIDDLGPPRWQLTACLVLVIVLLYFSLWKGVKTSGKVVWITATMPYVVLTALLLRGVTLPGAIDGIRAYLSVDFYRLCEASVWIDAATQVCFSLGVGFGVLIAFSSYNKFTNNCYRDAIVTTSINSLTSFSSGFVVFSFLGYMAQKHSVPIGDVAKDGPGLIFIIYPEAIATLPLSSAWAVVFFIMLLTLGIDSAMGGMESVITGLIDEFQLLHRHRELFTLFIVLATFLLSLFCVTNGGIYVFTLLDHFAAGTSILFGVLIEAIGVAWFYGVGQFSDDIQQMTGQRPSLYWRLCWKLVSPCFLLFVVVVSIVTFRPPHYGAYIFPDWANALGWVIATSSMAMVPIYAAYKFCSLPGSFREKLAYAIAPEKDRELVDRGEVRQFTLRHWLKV

`Cc1[nH]c2ccc(Cl)cc2c1C1=CCNCC1` [EMD 386088, 5-chloro-2-methyl-3-(1,2,3,6-tetrahydro-4-pyridinyl)-1H-indole hydrochloride] gave a Ki of 41 nM.
